From US8697694B2, “Substituted pyridine and pyrimidine derivatives and their use in treating viral infections” (priority 2008, dated 2014)

These molecules were tested on HCV replicon cells (assay: Cell-based HCV replicon assay (replicon RNA level by real time PCR, Taqman)). Details: HCV replicon cells, harvested day 3, replicon RNA by real time PCR; reported as range class; read-out: EC90 (μM) range.
Outline: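 Readout: ΔCT between NS5B replicon RNA and GAPDH by real-time RT-PCR in lysates harvested on day 3, fitted sigmoidally; EC50 at ΔCT=1, EC90 at ΔCT=3.2. Compounds tested at ten 2-fold dilutions from 25 μM to 1 μM start, 10% FBS, 0.5% DMSO.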
For `COc1cc2cc(-c3c(Cl)nc(N(C)C)nc3N[C@@H]3C[C@H](CO)[C@@H](O)[C@H]3O)oc2c(C)n1` [Example 13], the EC90 was > 5 µM.

Same assay, conditions: Hepatitis C virus, 72 h, HCV replicon cells, harvested day 3, replicon RNA by real time PCR; given as number; read-out: EC90 (μM) range
For `CCOc1cc2cc(-c3c(C)nc(NCC4CC4)nc3N[C@@H]3C[C@H](CO)[C@@H](O)C3)oc2c(C)n1` [Example 52], the EC90 was 0.3 µM.
In the case of `CCCOc1cc2cc(-c3c(C)nc(NCC(F)(F)F)nc3N[C@@H]3C[C@H](CO)[C@@H](O)[C@H]3O)oc2c(C)n1` [Example 34], the EC90 is reported as 0.1 µM.
Work on `CCOc1cc2cc(-c3c(C)nc(NC)nc3N[C@@H]3C[C@H](CO)[C@@H](O)[C@H]3O)oc2c(C)n1` [Example 28] yielded an EC90 of 0.45 µM.
In the case of `CCCOc1cc2cc(-c3c(C)nc(NCC(C)(C)C)nc3N[C@@H]3C[C@H](CO)[C@@H](O)[C@H]3O)oc2cn1` [Example 61], the EC90 is reported as > 1 µM.

Same assay, conditions: Hepatitis C virus, 72 h, HCV replicon cells, harvested day 3, replicon RNA by real time PCR; reported as range class; read-out: EC90 (μM) range
`CNc1nc(Cl)c(-c2nc3ccccc3s2)c(N[C@@H]2C[C@H](CO)[C@@H](O)[C@H]2O)n1` [Example 403] was tested, and the EC90 was < 0.5 µM.
`CC1(C)O[C@@H]2[C@@H](CO)C[C@@H](Nc3nc(N)nc(Cl)c3-c3nc4c(F)cc(F)cc4s3)[C@@H]2O1` [Example 186] showed an EC90 of 0.5 to 5 µM.
`Nc1nc(N[C@@H]2C[C@H](CO)[C@@H](O)[C@H]2O)c(-c2ncccn2)c(-c2ncccn2)n1` [Example 160] was tested, and the EC90 was > 5 µM.
With `CCOc1cc2cc(-c3c(C)nc(NCCOC)nc3N[C@@H]3C[C@H](CO)[C@@H](O)[C@H]3O)oc2c(C)n1` [Example 31] the EC90 was < 0.5 µM.
In the case of `Cc1nc(NCCOC(C)C)nc(N[C@@H]2C[C@H](CO)[C@@H](O)[C@H]2O)c1-c1nc2ccccc2s1` [Example 220], the EC90 is reported as < 0.5 µM.

Same assay, conditions: Hepatitis C virus, 72 h, HCV replicon cells, harvested on day 3, replicon RNA by real time PCR; calculated EC90 reported as range class; read-out: EC90 (μM) range
In the case of `Cc1nc(NCCN2CCOCC2)nc(N[C@@H]2C[C@H](CO)[C@@H](O)[C@H]2O)c1-c1nc2ccccc2s1` [Example 252], the EC90 is reported as < 0.5 µM.
In the case of `CCc1cc2cc(-c3c(C)nc(NCc4ccccn4)nc3N[C@@H]3C[C@H](CO)[C@@H](O)[C@H]3O)oc2cn1` [Example 344], the EC90 is reported as < 0.5 µM.
For `Cc1nc(NC2CCOCC2)nc(N[C@@H]2C[C@H](CO)[C@@H](O)[C@H]2O)c1-c1nc2ccccc2s1` [Example 425], the EC90 was < 0.5 µM.
For `OC[C@H]1C[C@@H](Nc2nc(NCCc3ccccc3)nc(Cl)c2-c2nc3ccccc3s2)[C@H](O)[C@@H]1O` [Example 444], the EC90 was < 0.5 µM.
For `OC[C@H]1C[C@@H](Nc2nc(NC3CCOCC3)nc(Cl)c2-c2nc3ccccc3s2)[C@H](O)[C@@H]1O` [Example 424], the EC90 was < 0.5 µM.
For `Cc1nc(NCCc2ccccc2)nc(N[C@@H]2C[C@H](CO)[C@@H](O)[C@H]2O)c1-c1nc2ccccc2s1` [Example 445], the EC90 was < 0.5 µM.
For `CCOC(=O)NCCNc1nc(C)c(-c2nc3ccccc3s2)c(N[C@@H]2C[C@H](CO)[C@H]3OC(C)(C)O[C@H]32)n1` [Example 255], the EC90 was < 0.5 µM.
In the case of `Cc1nc(NCc2ccccc2F)nc(N[C@@H]2C[C@H](CO)[C@@H](O)[C@H]2O)c1-c1nc2ccccc2s1` [Example 233], the EC90 is reported as < 0.5 µM.
`COCc1cc2cc(-c3c(C)nc(NCC(C)(C)C)nc3N[C@@H]3C[C@H](CO)[C@@H](O)[C@H]3O)oc2cn1` [Example 715] was tested, and the EC90 was < 0.5 µM.
In the case of `CCc1cc2cc(-c3c(C)nc(NCCOC)nc3N[C@@H]3C[C@H](CO)[C@@H](O)[C@H]3O)oc2cn1` [Example 508], the EC90 is reported as < 0.5 µM.
In the case of `OC[C@H]1C[C@@H](Nc2nc(NCc3ccc(F)cc3)nc(Cl)c2-c2nc3ccccc3s2)[C@H](O)[C@@H]1O` [Example 251], the EC90 is reported as < 0.5 µM.

Same assay, conditions: Hepatitis C virus, 72 h, HCV replicon cells, replicon RNA level by real time PCR (Taqman), day 3; calculated EC90; read-out: EC90 (μM) range
`Cc1nc(NCC(F)(F)F)nc(N[C@@H]2C[C@H](CO)[C@@H](O)[C@H]2O)c1-c1nc2cnccc2o1` [Example 2001] showed an EC90 of 0.5 to 5 µM.
For `Cc1nc(NCCc2ccc(C(C)(C)C)cc2)nc(N[C@@H]2C[C@H](CO)[C@@H](O)[C@H]2O)c1-c1nc2cnccc2s1` [Example 2012], the EC90 was < 0.5 µM.

Same assay, conditions: Hepatitis C virus, 72 h, HCV replicon cells, replicon RNA level by real time PCR (Taqman), harvested on day 3; calculated EC90 reported as range class; read-out: EC90 (μM) range
With `COc1cc(CNc2nc(C)c(-c3nc4ccccc4s3)c(N[C@@H]3C[C@H](CO)[C@@H](O)C3)n2)cc(OC)c1` [Example 1241] the EC90 was < 0.5 µM.
In the case of `Cc1nc(N(C)C)nc(N[C@@H]2C[C@H](CO)[C@@H](O)[C@H]2O)c1-c1nc2cnccc2s1` [Example 533], the EC90 is reported as > 5 µM.
With `CNc1nc(C)c(-c2nc3cnccc3s2)c(N[C@@H]2C[C@H](CO)[C@@H](O)[C@H]2O)n1` [Example 1326] the EC90 was < 0.5 µM.
`Cc1nc(NCC(F)(F)F)nc(N[C@@H]2C[C@H](CN3CCCC3)[C@@H](O)[C@H]2O)c1-c1nc2ccccc2s1` [Example 1017] showed an EC90 of 0.5 to 5 µM.
In the case of `CNC[C@H]1C[C@@H](Nc2nc(NCC(F)(F)F)nc(C)c2-c2nc3ccccc3s2)[C@H](O)[C@@H]1O` [Example 1071], the EC90 is reported as 0.5 to 5 µM.
`Cc1ccc([C@H](C)Nc2nc(C)c(-c3nc4cnccc4s3)c(N[C@@H]3C[C@H](CO)[C@@H](O)[C@H]3O)n2)cc1` [Example 1314] was tested, and the EC90 was 0.5 to 5 µM.
With `COc1cccc2sc(-c3c(C)nc(NCC4CC4)nc3N[C@@H]3C[C@H](C(C)O)[C@@H](O)[C@H]3O)nc12` (stereo partly drawn) [Example 1073] the EC90 was 0.5 to 5 µM.
`Cc1nc(NCC2CC2)nc(N[C@@H]2C[C@H](CO)[C@@H](O)[C@H]2O)c1-c1cc2cc(OCC3CCC3)nc(C)c2o1` [Example 1059] was tested, and the EC90 was > 5 µM.
Molecule `Cc1nc(NC2(c3ccccc3)CC2)nc(N[C@@H]2C[C@H](CO)[C@@H](O)[C@H]2O)c1-c1nc2ccccc2s1` [Example 1232] has an EC90 of 0.5 to 5 µM.
`Cc1nc(Nc2ccc(F)cc2)nc(N[C@@H]2C[C@H](CO)[C@@H](O)[C@H]2O)c1-c1nc2cnccc2s1` [Example 1053] was tested, and the EC90 was < 0.5 µM.
With `COCCNc1nc(C)c(-c2nc3cc(OC)ccc3s2)c(N[C@@H]2C[C@H](CO)[C@@H](O)[C@H]2O)n1` [Example 1009] the EC90 was 0.5 to 5 µM.
In the case of `COc1cccc(C)c1Nc1nc(C)c(-c2nc3ccccc3s2)c(N[C@@H]2C[C@H](CO)[C@@H](O)[C@H]2O)n1` [Example 1233], the EC90 is reported as 0.5 to 5 µM.
With `CCOCCNc1nc(C)c(-c2nc3cnccc3s2)c(N[C@@H]2C[C@H](CO)[C@@H](O)[C@H]2O)n1` [Example 525] the EC90 was < 0.5 µM.
`Cc1nc(NCC(C)(C)CC2CC2)nc(N[C@@H]2C[C@H](CO)[C@@H](O)[C@H]2O)c1-c1nc2cnccc2s1` [Example 1318] was tested, and the EC90 was < 0.5 µM.
For `CCOc1nc(C)cc2cc(-c3c(C)nc(NCC4CC4)nc3N[C@@H]3C[C@H](CO)[C@@H](O)[C@H]3O)oc12` [Example 1238], the EC90 was 0.5 to 5 µM.

Same assay, conditions: Hepatitis C virus, 72 h, HCV replicon cells, replicon RNA level by real time PCR, harvested day 3; read-out: EC90 (μM) range
For `CO[C@@H]1[C@H](O)[C@@H](CO)C[C@H]1Nc1nc(NCC(F)(F)F)nc(C)c1-c1nc2ccccc2o1` [Example 1354], the EC90 was < 0.5 µM.
Molecule `Cc1nc(NCC(F)(F)F)nc(N[C@@H]2C[C@H](CNC(=O)CO)[C@@H](O)[C@H]2O)c1-c1nc2ccccc2s1` [Example 1508] has an EC90 of 0.5 to 5 µM.
In the case of `CCC(O)[C@H]1C[C@@H](Nc2nc(NCC(F)(F)F)nc(C)c2-c2nc3ccccc3s2)[C@H](O)[C@@H]1O` (stereo partly drawn) [Example 1637], the EC90 is reported as 0.5 to 5 µM.
For `Cc1nc(NCCc2cccs2)nc(N[C@@H]2C[C@H](CO)[C@@H](O)[C@H]2O)c1-c1nc2cnccc2s1` [Example 1806], the EC90 was > 5 µM.
`CCNC(=O)OC[C@H]1C[C@@H](Nc2nc(NCC(F)(F)F)nc(C)c2-c2nc3ccccc3s2)[C@H](O)[C@@H]1O` [Example 1628] was tested, and the EC90 was < 0.5 µM.
`COc1ccc([C@@H](C)Nc2nc(C)c(-c3nc4c(C)nccc4s3)c(N[C@@H]3C[C@H](CO)[C@@H](O)[C@H]3O)n2)cc1` [Example 1529] was tested, and the EC90 was < 0.5 µM.
Work on `CCN(C[C@@H]1C[C@@H](Nc2nc(NCC(F)(F)F)nc(C)c2-c2nc3ccccc3s2)[C@H](O)[C@@H]1O)S(C)(=O)=O` [Example 1393] yielded an EC90 of 0.5 to 5 µM.
For `CCCc1nccc2sc(-c3c(C)nc(NCC4CC4)nc3N[C@@H]3C[C@H](CO)[C@@H](O)[C@H]3O)nc12` [Example 1369], the EC90 was < 0.5 µM.
For `Cc1nc(N[C@H](c2ccc(-n3cccn3)cc2)C(F)(F)F)nc(N[C@@H]2C[C@H](CO)[C@@H](O)[C@H]2O)c1-c1nc2c(C)nccc2s1` [Example 1530], the EC90 was > 5 µM.
In the case of `COC[C@@H](Nc1nc(C)c(-c2nc3c(C)nccc3s2)c(N[C@@H]2C[C@H](CO)[C@@H](O)[C@H]2O)n1)c1ccccc1` [Example 1364], the EC90 is reported as 0.5 to 5 µM.
For `Cc1nc(NCc2cc3cn[nH]c3cc2F)nc(N[C@@H]2C[C@H](CO)[C@@H](O)[C@H]2O)c1-c1nc2cnccc2s1` [Example 1911], the EC90 was < 0.5 µM.
For `CCCc1nccc2sc(-c3c(C)nc(N[C@H](C)C4CC4)nc3N[C@@H]3C[C@H](CNC(=O)OC)[C@@H](O)[C@H]3O)nc12` [Example 1388], the EC90 was < 0.5 µM.
In the case of `Cc1nc(NCC2CC2)nc(N[C@@H]2C[C@@H](C(C)O)[C@@H](O)[C@H]2O)c1-c1nc2cnccc2s1` (stereo partly drawn) [Example 1650], the EC90 is reported as < 0.5 µM.
With `CCN(C[C@H]1C[C@@H](Nc2nc(NCC(F)(F)F)nc(C)c2-c2nc3ccccc3s2)[C@H](O)[C@@H]1O)S(C)(=O)=O` [Example 1392] the EC90 was < 0.5 µM.
For `Cc1nc(N[C@H](C)c2ccc(-n3cccn3)cc2)nc(N[C@@H]2C[C@H](CO)[C@@H](O)[C@H]2O)c1-c1nc2ccccc2s1` [Example 1365], the EC90 was < 0.5 µM.
In the case of `Cc1nc(NCC(C)(C)C)nc(N[C@H]2C[C@@H](CO)[C@H](O)[C@@H]2O)c1-c1nc2ccccc2s1` [Example 1502], the EC90 is reported as > 5 µM.
In the case of `Cc1nc(NC2CC2)nc(N[C@@H]2C[C@H](CO)[C@@H](O)[C@H]2O)c1-c1nc2c(C)nccc2s1` [Example 1543], the EC90 is reported as < 0.5 µM.
In the case of `Cc1nc(N[C@H](C)C2CC2)nc(N[C@@H]2C[C@H](CO)[C@@H](O)C2(C)O)c1-c1nc2cnccc2s1` (stereo partly drawn) [Example 1384], the EC90 is reported as < 0.5 µM.
`Cc1nc(N[C@H](C)c2ccc(OC(F)(F)F)cc2)nc(N[C@@H]2C[C@H](C(C)O)[C@@H](O)[C@H]2O)c1-c1nc2ccccc2s1` (single isomer, unassigned) [Example 1645] was tested, and the EC90 was 0.5 to 5 µM.
